The target in series [1] is human recombinant cathepsin C (Homo sapiens, UniProt P53634). Nature of the series: In vitro inhibitory effect on human recombinant cathepsin C (h-gly-arg-amc substrate). Type of series: biochemical. To be noted: human recombinant cathepsin C 2 nM, 30 min preincubation at 25° C., substrate 100 μM; read-out: CatC IC50.
In series [2] the target is T1, intracellular cathepsin C in THP-1 cells (Homo sapiens, UniProt P53634).
T1 construct: endogenous in cells; host or cells: THP-1
Nature of the series: In vitro inhibitory effect on intracellular cathepsin C in THP-1 cells. Type of series: cell-based. As to conditions: 1 h incubation at 37° C., h-gly-arg-amc 200 μM, read-out: THP-1 CatC IC50.

In series [3] the target is T2, intracellular cathepsin C in U937 cells (Homo sapiens, UniProt P53634).
T2 construct: endogenous in cells; host or cells: U937
Nature of the series: In vitro inhibitory effect on intracellular cathepsin C in U937 cells. Type of series: cell-based. As to conditions: 1 h incubation at 37° C., h-gly-arg-amc 200 μM, read-out: U937 CatC IC50.

In series [4] the test system is cytokines (IFN-γ, IL-1β, IL-6, IL-17, TNF-α, GM-CSF, IL-10). Nature of the series: Cytokine levels in COPD model by ELISA. Type of series: in vivo. To be noted: COPD rats; bone marrow, blood, lung, and BALF; dose-dependent. The procedure: (§1) A combination of fumigation and LPS (Sigma) was used. […] Except for the negative control group, all rats were exposed to cigarette smoke (XIONGSHI) for 45 min in each day from day 1 to day 13 and day 15 to day 30, subjected to tracheal instillation of LPS ([…]) on day 0 (start point of the study), and subjected to tracheal instillation of LPS ([…]) on day 14. The body weight was recorded every three days, and the behavior, coat color and breathing were observed daily. On day 31, the animals were euthanized with an overdose of chloral hydrate. Subsequently, lung, bronchoalveolar lavage fluid (BALF), blood, bone marrow samples were collected and stored at −80° C. until being detected. The levels of cathepsin C and NSP were detected with previously described methods, and cytokine levels in all samples were analyzed by ELISA kits (MULTI SCIENCES).
For orientation: An ELISA detects its analyte on a solid surface through an enzyme-linked reagent.

Series [5] is described as follows: In vivo acute toxicity evaluation. To be noted: mouse, ICR mice, oral, 1500 mg/kg at one time, observed one week. From the text: (§2) In Vivo Acute Toxicity Evaluation:
(§3) The mice were randomly divided into two groups and subjected to adaptive feeding for one week. […] The body weight, mortality and behavior of the mice were observed and recorded daily for one week. Subsequently, the mice were anesthetized and the tissues were used for HE staining.

Series [6] deals with ICR mice. Put plainly: In vivo acute toxicity evaluation. To be noted: mouse, po, 1500 mg/kg.
Text: as §2, §3

The test system of series [7] is COPD rat model. Put plainly: In vivo anti-inflammatory activity assessment, COPD model (fumigation and LPS). To be noted: oral 5, 15, 45 mg/kg twice a day. More on the design: species or system rats. The procedure:
In Vivo Anti-Inflammatory Activity Assessment:
as §1

In series [8] the test system is cathepsin C and downstream NSPs. Nature of the series: Cathepsin C and NSP levels in COPD model. The format is in vivo. As to conditions: COPD rats, oral 5, 15, 45 mg/kg twice a day; bone marrow, blood, lung, and BALF; dose-dependent. As to the method: as §1
Series [9] relates to cathepsin C and NSPs. Put plainly: Test of in vivo inhibition of cathepsin C and NSPs in normal mice. To be noted: C57BL/6 mice, oral 5, 15, 45 mg/kg for 6 days; bone marrow and blood; dose-dependent. The procedure: Test of In Vivo Inhibition of Cathepsin C and NSPs.
C57BL/6 mice (half sex, about 20 g, purchased from the Department of Animal Science of Anhui Medical University) were randomly divided into four groups (N=6). […] Mice in the control group were administered with the same amount of normal saline twice a day for 6 days. At the end, bone marrow and blood were drawn to analyze the activity of cathepsin C and NSPs. Bone marrow and blood lysates were added to a 384-well plate. A synthetic peptide substrate was used to analyze the activity of NSPs and cathepsin C.

For orientation: IC50 means the point on the concentration scale where inhibition reaches its midpoint. Broadly, the LD50 is the dose at which mortality reaches 50%. Read a low LD50 as greater toxicity.

T1 sequence (P53634 25-463): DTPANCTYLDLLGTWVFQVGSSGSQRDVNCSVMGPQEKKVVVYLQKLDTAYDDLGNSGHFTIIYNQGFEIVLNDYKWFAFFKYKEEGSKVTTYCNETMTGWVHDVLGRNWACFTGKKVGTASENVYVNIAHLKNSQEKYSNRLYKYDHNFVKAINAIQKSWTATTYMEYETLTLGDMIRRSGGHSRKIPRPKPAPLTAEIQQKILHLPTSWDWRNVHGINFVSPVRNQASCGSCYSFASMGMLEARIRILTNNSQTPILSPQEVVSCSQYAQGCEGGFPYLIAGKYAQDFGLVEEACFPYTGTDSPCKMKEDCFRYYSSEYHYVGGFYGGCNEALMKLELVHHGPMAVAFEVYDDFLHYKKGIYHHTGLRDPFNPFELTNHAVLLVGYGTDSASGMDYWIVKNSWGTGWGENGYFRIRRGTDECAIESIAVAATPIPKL
T2 sequence (P53634 25-463): as above
human recombinant cathepsin C, sequence (P53634 25-463): as above

For the compound “5-chloro-N^2-(5-(4-(dimethylamino)phenyl)pyridin-2-yl)-N^4-(3-(trifluoromethyl)phenyl)pyrimidine-2,4-diamine [Compound 61]”, the IC50 in series [1] was determined as 0.3053 ± 0.0027 µM; in series [2] it was 0.2782 ± 0.0012 µM; in series [3] it was 0.3775 ± 0.0009 µM.
Regarding `CN1CCN(c2ccc(Nc3ncc(Cl)c(Nc4cccc(C(F)(F)F)c4)n3)nc2)CC1` [Compound 41, 5-chloro-N^2-(5-(4-methylpiperazin-1-yl)pyridin-2-yl)-N^4-(3-(trifluoromethyl)phenyl)pyrimidine-2,4-diamine], in [4], the IL-10 level entry was “increased cytokines (IL-10) in a dose-dependent manner”; the “level of pro-inflammatory cytokines (IFN-γ, IL-1β, IL-6, IL-17, TNF-α, and GM-CSF)” value is given as “decreased level of pro-inflammatory cytokines”. In series [5], this compound had a median lethal dose (LD50) at 1 week of over 1500 mg/kg. In [6], the “pathological changes in tissues and organs (HE staining)” value is given as “no pathological changes were found”. The “histopathological changes of lung tissue (H&E staining)” value in [7] (COPD rat model) is “ameliorated these histopathological changes in an obvious dose-dependent manner”. For the same compound, the body weight result in series [7] (COPD rats) was “lost their weight slowly and gained weight slightly after about 20 days”. Further, the “pulmonary inflammation and systemic inflammation” value in [7] (COPD rats, 28 days, compared with the model group) was “significantly less suffered from pulmonary inflammation and systemic inflammation”. Besides, the “cathepsin C activity and downstream NSP activation” value in [8] was “decreased obviously”. The “cathepsin C activity and downstream NSP activation” value in series [9] is given as “decreased obviously”.
As to `CCCCN1CCN(c2ccc(Nc3ncc(Cl)c(Nc4cccc(C(F)(F)F)c4)n3)nc2)CC1` [Compound 48, N^2-(5-(4-butylpiperazin-1-yl)pyridin-2-yl)-5-chloro-N^4-(3-(trifluoromethyl)phenyl)pyrimidine-2,4-diamine], the 50% inhibitory concentration (IC50) in [2] came to 0.2405 ± 0.0012 µM; in series [3], 0.199 ± 0.00203 µM.
Turning to `CON1CCN(c2ccc(Nc3ncc(C)c(Nc4cccc(C(F)(F)F)c4)n3)nc2)CC1` [Compound 67, 5-methyl-N^2-(5-(4-methoxypiperazin-1-yl)pyridin-2-yl)-N^4-(3-(trifluoromethyl)phenyl)pyrimidine-2,4-diamine], the IC50 stood at 0.167 ± 0.00201 µM in series [1], 0.1398 ± 0.00103 µM in series [2] and 0.156 ± 0.00213 µM in series [3].
